Reference: US4067997A, “Synergistic microbecidal composition and method” (priority 1976, dated 1978)

How the values were obtained:
Experiment in all cases: MIC on mass basis (Example V procedure)
Type in all cases: cell-based
[1] = system: Streptococcus agalactiae
Procedure, shortened: (§1)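 MIC was determined on a mass (μg/ml) basis rather than a molar basis against gram-negative and gram-positive organisms. Phenolic compounds were tested alone, combined with glycerol monolaurin (GML), and combined with GML plus calcium EDTA and BHA.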

[2] = system: Staphylococcus aureus
Procedure, shortened: as §1

[3] = system: Saccharomyces cerevisiae
[4] = system: Candida albicans
[5] = system: Escherichia coli
Procedure, shortened: as §1

Compound: CCCCCCCCCCCC(=O)OCC(O)CO (stereo not drawn) [GML, glycerol mono-laurin]
- MIC ([1]; Table 13, Streptococcus agalactiae): 15.60 µg/mL
- MIC ([1]; Table 14, Streptococcus agalactiae): 31.25 µg/mL
- MIC ([2]; Table 13, Staphylococcus aureus): 31.25 µg/mL
- MIC ([2]; Table 14, Staphylococcus aureus): 31.25 µg/mL
- MIC ([2]; Table 16, Staphylococcus aureus, no unit in table): 1,000
- MIC of GML ([2]; Table 17, EDTA 0): 1,000 μg/ml
- MIC of GML ([2]; Table 17, EDTA 125): 1,000 μg/ml
- MIC of GML ([2]; Table 17, EDTA 250): 1,000 μg/ml
- MIC of GML ([2]; Table 17, EDTA 500): 500 µg/mL
- MIC of GML ([2]; Table 17, EDTA 1,000): 100 µg/mL
- MIC of GML ([2]; Table 17, EDTA 5,000): < 10 µg/mL
- MIC of GML ([2]; Table 17, EDTA 10,000): < 10 µg/mL
- MIC ([3]; Table 13, Saccharomyces cerevisiae): < 1,000 μg/ml
- MIC ([3]; Table 14, Saccharomyces cerevisiae): 1,000 μg/ml
- MIC ([3]; Table 16, Saccharomyces cerevisiae, no unit in table): 1,000
- MIC of GML ([3]; Table 17, EDTA 0): 1,000 μg/ml
- MIC of GML ([3]; Table 17, EDTA 125): 500 µg/mL
- MIC of GML ([3]; Table 17, EDTA 250): 100 µg/mL
- MIC of GML ([3]; Table 17, EDTA 500): 100 µg/mL
- MIC of GML ([3]; Table 17, EDTA 1,000): < 10 µg/mL
- MIC of GML ([3]; Table 17, EDTA 5,000): < 10 µg/mL
- MIC of GML ([3]; Table 17, EDTA 10,000): < 10 µg/mL
- MIC ([4]; Table 13, Candida albicans): > 1,000 μg/ml
- MIC ([4]; Table 14, Candida albicans): > 1,000 μg/ml
- MIC ([4]; Table 16, Candida albicans, no unit in table): > 1,000
- MIC of GML ([4]; Table 17, EDTA 0): > 10,000 μg/ml
- MIC of GML ([4]; Table 17, EDTA 125): 500 µg/mL
- MIC of GML ([4]; Table 17, EDTA 250): 500 µg/mL
- MIC of GML ([4]; Table 17, EDTA 500): 100 µg/mL
- MIC of GML ([4]; Table 17, EDTA 1,000): 100 µg/mL
- MIC of GML ([4]; Table 17, EDTA 5,000): 100 µg/mL
- MIC of GML ([4]; Table 17, EDTA 10,000): 100 µg/mL
- MIC ([5]; Table 13, Escherichia coli): > 1,000 μg/ml
- MIC ([5]; Table 14, Escherichia coli): > 1,000 μg/ml
- MIC ([5]; Table 16, Escherichia coli, no unit in table (Example 5 procedure, mass basis)): > 1,000
- MIC of GML ([5]; Table 17, EDTA 0): > 10,000 μg/ml
- MIC of GML ([5]; Table 17, EDTA 125): > 10,000 μg/ml
- MIC of GML ([5]; Table 17, EDTA 250): > 10,000 μg/ml
- MIC of GML ([5]; Table 17, EDTA 500): > 10,000 μg/ml
- MIC of GML ([5]; Table 17, EDTA 1,000): > 10,000 μg/ml
- MIC of GML ([5]; Table 17, EDTA 5,000): > 10,000 μg/ml
- MIC of GML ([5]; Table 17, EDTA 10,000): > 10,000 μg/ml
